We go through 2 molecules from patent publication US10761087B2, “Choroidal neovascularization suppressor or drusen formation suppressor, and method for assessing or screening for same” (Link Genomics, Inc., priority 2015, dated 2020).

Format in all cases: cell-based, human
The test system of experiment [1] is EMT markers (mesenchymal markers, ECM) in RPE cells (ARPE-19). As to the kind of experiment: Change in expression of EMT markers (real-time PCR) in EMT-induced RPE cells. As to conditions: EMT-induced ARPE-19, 48 hours; for Enhancement of expression of Fibronectin, Snail and vimentin (mesenchymal markers): compound at Cmax, ½ of Cmax or ¼ of Cmax; for EMT suppression (FIG. 3 to FIG. 7) / Expression of EMT markers other than the ten common markers / Expression of Snail, Slug, CDH3, MMP1, MMP7, COL5A3, COL6A3, LAMC2, HMMR, TNC: oxaprozin 300 μM, epalrestat 30 μM, zafirlukast 3 μM, amlexanox 30 μM, zaltoprofen 30 μM. The procedure:
RPE cells (ARPE-19) were seeded on a plate, and incubated for 5 days at 37° C. For the RPE cells, EMT was induced in the conditions described in Test example 1-1, and respective compounds (oxaprozin, epalrestat, zafirlukast, amlexanox, zaltoprofen) were added simultaneously, and the cells were collected after 48 hours from induction of EMT. As a control, a sample to which a compound to be assessed (test drug) is not added was used. The collected cells were washed with PBS, and 350 μL of an RLT buffer was added to prepare a lysate for RNA extraction. The respective compounds were used in the following concentrations. Oxaprozin: 300 μM, epalrestat: 30 μM, zafirlukast: 3 μM, amlexanox: 30 μM, zaltoprofen: 30 μM. Total RNA was extracted from the lysate using an RNeasy Micro kit (QIAGEN, #74004), and from 2 μg of the obtained RNA, cDNA was prepared using a SuperScript III First-Strand Synthesis SuperMix for qRT-PCR (Invitrogen, #11752-250). Using 50 ng of the obtained cDNA as a template, a real-time PCR (ABI Prism 7500 Sequence Detection System) was conducted according to the manufacturer's protocol, and expression of mRNA of each gene was quantified. Specific primers for respective genes were purchased from Invitrogen. Ct (Threshold Cycle) value of each gene was calculated as a percentage to a non-treated sample after normalization by endogenous control.
Five compounds (flufenamic acid aluminum (addition concentration: 28 μM (Cmax)), mefenamic acid (addition concentration: 39 μm (Cmax)), sulindac (addition concentration: 100 μM), tiaprofenic acid (addition concentration: 1000 μM), and seratrodast (addition concentration: 31 μM (Cmax))) were assessed for change in expression of EMT markers in the same manner as in Test example 2-1. The results are shown in FIG. 8 to FIG. 12, respectively.
(§1) RPE cells (ARPE-19) were seeded on a plate, and incubated for 5 days at 37° C. […] Each compound was added in a concentration of Cmax, ½ of Cmax or ¼ of Cmax. As a control, a sample to which a compound to be assessed (test drug) is not added was used. The collected cells were washed with PBS, and 350 μL of an RLT buffer was added to prepare a lysate for RNA extraction. Total RNA was extracted from the lysate using an RNeasy Micro kit (QIAGEN, #74004), and from 2 μg of the obtained RNA, cDNA was prepared using a SuperScript III First-Strand Synthesis SuperMix for qRT-PCR (Invitrogen, #11752-250). Using 50 ng of the obtained cDNA as a template, a real-time PCR (ABI Prism 7500 Sequence Detection System) was conducted according to the manufacturer's protocol, and expression of mRNA of each gene was quantified. Specific primers for respective genes were purchased from Invitrogen. Ct (Threshold Cycle) value of each gene was calculated as a percentage to a non-treated sample after normalization by endogenous control. For each result, a significant test (Student t test) was conducted, and when p<0.05, the result was marked with “*”, and when p<0.01, the result was marked with “**”.
RPE cells (ARPE-19) were seeded on a plate, and incubated for 5 days at 37° C. For the RPE cells, EMT was induced in the conditions described in Test example 5-1, and the five representative compounds (oxaprozin, epalrestat, zafirlukast, amlexanox, zaltoprofen) were added simultaneously, and the cells were collected after 48 hours from induction of EMT. As a control, a sample to which a compound to be assessed (test drug) is not added was used. The collected cells were washed with PBS, and 350 μL of an RLT buffer was added to prepare a lysate for RNA extraction. Total RNA was extracted from the lysate using an RNeasy Micro kit (QIAGEN, # 74004), and from 2 μg of the obtained RNA, cDNA was prepared using a SuperScript III First-Strand Synthesis SuperMix for qRT-PCR (Invitrogen, # 11752-250). […]
For orientation: Real-time PCR tracks product formation cycle by cycle.

The next experiment deals with VEGF. The experiment in a line: Change in expression of VEGF mRNA (real-time PCR) in EMT-induced RPE cells. As to conditions: EMT-induced ARPE-19, 48 hours, compound at Cmax, ½ of Cmax or ¼ of Cmax. The procedure: as §1
The results are shown in FIG. 16 or FIG. 17, respectively.
The VEGF suppressive effect was assessed using the cell model as described above in the same manner as in Test example 2-3. The results are shown in FIG. 18 to FIG. 20, respectively.

The next experiment has as its system RPE cells (ARPE-19). The experiment in a line: Focus (drusen-like structure) formation suppression in EMT induction model of RPE cells. As to conditions: for Suppression of drusen-like structure formed in the RPE cell model: FIG. 35 to 39; for IC50: Homo sapiens. The procedure: RPE cells (ARPE-19) were seeded on a plate, and incubated for 5 days at 37° C. […] As a control of EMT induction, a sample to which a compound to be assessed (test drug) is not added was used. After 48 hours from EMT induction, the cells were fixed by treating with a 4% paraformaldehyde solution for 30 minutes at room temperature, and then washed three times with PBS. The cells were treated with a 0.2% Triton-X/PBS solution for 5 minutes, and washed three times with PBS. […] The fluorescent-stained cells were imaged by using an Image Express Micro (available from Molecular Devices), and digitized by using a MetaXpress2.0 (available from Molecular Devices). By analyzing the degree of formation of Focus (Focus level) from the numerical data, a Focus formation suppressing rate was calculated according to the following Formula 1 on the basis of the numerical value at the time of no addition of a compound, and the EMT suppressive effect in each compound was verified. The degree of formation of Focus (Focus level) was determined according to the number and the volume of Focus as indexes.
IC50 in the table was calculated using the following Formula 2.
A: Higher concentration sandwiching 50%
B: Lower concentration sandwiching 50%
C: Inhibition rate at lower concentration sandwiching 50%
D: Inhibition rate at higher concentration sandwiching 50%
RPE cells (ARPE-19) were seeded on a plate, and incubated for 5 days at 37° C. […] As a control of EMT induction, a sample to which a compound to be assessed (test drug) is not added was used. The cells after observation were fixed by treating with a 4% paraformaldehyde solution for 30 minutes at room temperature, and then washed three times with PBS. The cells were treated with a 0.2% Triton-X/PBS solution for 5 minutes, and washed three times with PBS. […] The fluorescent-stained cells were imaged by using an Image Express Micro (available from Molecular Devices), and digitized by using a MetaXpress2.0 (available from Molecular Devices). By analyzing the degree of formation of Focus from the numerical data, a Focus formation suppressing rate was calculated on the basis of the case without addition of a compound and the case without EMT induction, and the EMT suppressive effect in each compound was verified. […] After washing three times with methanol, the cells were dried for 3 hours at room temperature. The dried cells were observed under a microscope.

The mark [2] stands for this setting: Table 1, EMT-induced ARPE-19, compound added simultaneously, 48 hours, read-out: IC50 (Focus formation suppressing rate, EMT suppressive effect).
Setting [3] is: Test example 7, EMT-induced ARPE-19, 48 hours, read-out: IC50 values in the drusen-like structure suppressing tests.

Where two headings read alike, the source gives them in different places.

The IC50 is the point on the concentration scale where inhibition reaches its midpoint. As to `CC(C(=O)O)c1ccc2c(c1)CC(=O)c1ccccc1S2` (stereo not drawn) [Zaltoprofen, zaltoprofen], in experiment [1], the “Enhancement of expression of Fibronectin, Snail and vimentin (mesenchymal markers)” value is “suppressed enhancement of expression of these in a concentration dependent manner”; the “EMT suppression (FIG. 3 to FIG. 7)” value was “significantly suppress EMT”; the “Expression of EMT markers other than the ten common markers” value is “decrease in expression was observed in ZEB2, FN1, COL13A1, and CSPG4”; the “Expression of Snail, Slug, CDH3, MMP1, MMP7, COL5A3, COL6A3, LAMC2, HMMR, TNC” value is listed as “suppressed expression”. Moreover, the “Enhancement of VEGF mRNA expression by EMT induction” value (from here on “Enhancement of VEGF mRNA expression”) in the experiment with VEGF is on record as “suppressed enhancement of VEGF expression in a concentration dependent manner”. Further, the “Enhancement of VEGF mRNA expression” value in the experiment with VEGF (listed as zaltoprofen) is “suppress enhancement of mRNA expression of VEGF”. Further, the “Suppression of drusen-like structure formed in the RPE cell model” value with RPE cells (ARPE-19) (EMT-induced ARPE-19, 48 hours) was “suppresses a drusen-like structure formed in the RPE cell model in a concentration-dependent manner”. Besides, the IC50 in the experiment with RPE cells (ARPE-19) (setting [2]) came out at 16.5 µM. The concentration for half-maximal inhibition (IC50) in the experiment with RPE cells (ARPE-19) (setting [3]) was determined as 16.5 µM.
As for `O=C(O)CCc1nc(-c2ccccc2)c(-c2ccccc2)o1` [Oxaprozin, oxaprozin], in experiment [1], the “Enhancement of expression of Fibronectin, Snail and vimentin (mesenchymal markers)” value is recorded as “suppressed enhancement of expression of these in a concentration dependent manner”; the “EMT suppression (FIG. 3 to FIG. 7)” value is reported as “significantly suppress EMT”; the “Expression of EMT markers other than the ten common markers” value was “decrease in expression was observed in ZEB2, MMP3, COL1A1, COL1A2, CSPG4, and SRGN”; the “Expression of Snail, Slug, CDH3, MMP1, MMP7, COL5A3, COL6A3, LAMC2, HMMR, TNC” value is on record as “suppressed expression”. Also, in the experiment with VEGF, the “Enhancement of VEGF mRNA expression” value is “suppressed enhancement of VEGF expression in a concentration dependent manner”. Besides, the “Enhancement of VEGF mRNA expression” value in the experiment with VEGF (listed as oxaprozin) is “suppress enhancement of mRNA expression of VEGF”. Also, the “Suppression of drusen-like structure formed in the RPE cell model” value with RPE cells (ARPE-19) (EMT-induced ARPE-19, 48 hours) is on record as “suppresses a drusen-like structure formed in the RPE cell model in a concentration-dependent manner”. Moreover, the IC50 in the experiment on RPE cells (ARPE-19) (setting [2]) came to 61 µM. The concentration for half-maximal inhibition (IC50) with RPE cells (ARPE-19) (setting [3]) was determined as 61 µM.
